This note sets out measurements from patent publication US6767552B2, “Adhesive treatment for oral fungal infection” (Closure Medical Corporation, priority 2001, dated 2004).

A short description of this series: Observation of the haloprogin / 2-octyl cyanoacrylate monomer composition in a sealed glass vial. The series is classed as physicochemical. The note with it: 30 mg haloprogin in 2 mL 2-octyl cyanoacrylate monomer. The method, then: A 2-octyl cyanoacrylate monomer composition is prepared by adding 30 mg of haloprogin, an anti-fungal agent, to 2 mL of 2-octyl cyanoacrylate monomer. The mixture is sealed in a glass vial and stirred. The characteristics of the composition are observed at about one minute after preparation and later at least twenty-four hours after preparation.

Structures are written as SMILES.

As to `Clc1cc(Cl)c(OCC#CI)cc1Cl` [haloprogin], the “premature polymerization of the monomer” value (at least twenty-four hours after preparation) is reported as “does not cause premature polymerization”. The “solubility of haloprogin in the monomer” value (observed about one minute and at least twenty-four hours after preparation) is listed as “soluble”.
